Results published in article PMC6042085 (Proceedings of the National Academy of Sciences of the …, 2018).

Target: T1, PriSLX (Saccharolobus solfataricus, UniProt Q97Z83+Q97ZS7)
T1 sequence (Q97Z83 1-330): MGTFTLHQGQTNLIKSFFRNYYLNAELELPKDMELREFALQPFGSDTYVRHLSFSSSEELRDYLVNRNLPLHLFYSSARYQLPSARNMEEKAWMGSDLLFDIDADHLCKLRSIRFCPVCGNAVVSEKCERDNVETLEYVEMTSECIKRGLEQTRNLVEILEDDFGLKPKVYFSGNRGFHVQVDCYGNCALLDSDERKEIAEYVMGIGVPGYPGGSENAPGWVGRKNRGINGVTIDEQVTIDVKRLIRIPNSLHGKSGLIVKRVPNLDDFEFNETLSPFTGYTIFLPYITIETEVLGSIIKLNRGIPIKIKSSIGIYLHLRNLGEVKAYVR
T1 sequence (Q97ZS7 1-154): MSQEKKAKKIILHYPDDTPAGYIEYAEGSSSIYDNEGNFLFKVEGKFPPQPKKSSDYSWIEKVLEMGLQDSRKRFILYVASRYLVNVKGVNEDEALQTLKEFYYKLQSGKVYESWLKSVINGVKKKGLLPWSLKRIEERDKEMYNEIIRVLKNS
T1 sequence (Q9UWW1 1-307 partner): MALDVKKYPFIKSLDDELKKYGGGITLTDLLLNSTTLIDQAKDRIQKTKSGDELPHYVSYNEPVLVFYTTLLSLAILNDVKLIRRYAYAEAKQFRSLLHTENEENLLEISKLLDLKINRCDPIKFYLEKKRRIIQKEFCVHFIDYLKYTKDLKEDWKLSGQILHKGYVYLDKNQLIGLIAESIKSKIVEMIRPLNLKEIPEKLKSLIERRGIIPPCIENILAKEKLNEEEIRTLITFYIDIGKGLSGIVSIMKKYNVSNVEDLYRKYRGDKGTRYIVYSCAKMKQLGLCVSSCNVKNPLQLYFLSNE
Assay: primer synthesis, […]-labelled nucleotide, gel
Format: biochemical
Details: poly(dT) template; pH 6.0, 10 mM MnCl2, 10 µM ZnCl2, 75 °C

Question: `Nc1ncnc2c1ncn2[C@H]1C[C@H](O)[C@@H](COP(=O)(O)OP(=O)(O)OP(=O)(O)O)O1` [dATP] was tested. Which “primer synthesis, 32P-labelled nucleotide, gel” value did it give?
Answer: The value was “reactions with solely dATP as substrate primarily generate a lower yield”.
